In patent US8114382B2, “Myelin detection using benzofuran derivatives” (General Electric Company, priority 2006, dated 2012):

Key:
[1] = Fluorescence excitation and emission peaks (Spetramax M5); format: physicochemical; details: 10 μM in aqueous solution
Procedure: Fluorescence excitation and emission peaks for Formula I, and benzofuran compounds A and B, (see Table 1) were measured using a Spetramax M5 (Molecular Devices). For Formula I, the excitation max was 380 nm, and the emission max was 470 nm. For compound A, the excitation max was 435 nm and the emission max was 550 nm. For compound B, the excitation max was 435 nm and the emission max was 535 nm. The final concentration of each analog in an aqueous solution was 10 μM. Log P, which is the logarithm of octanol-water partition coefficient, was determined for each analog using commercially available software (Table 1).

[2] = test system: myelin; assay: Staining of cryostatic sections of nervous tissue; format: binding, rat; details: for labeling of brain or nerve tissue versus background autofluorescence: brain and nerve sections
Procedure: 10 μm-thick sections (fresh frozen or formalin-fixed) of rat brain and cross-sections of sciatic, optic, and penile nerves were mounted on microscope slides, washed 3×5 min in phosphate buffered saline (PBS), then drained for 2 min. 1 mM stock solution of Formula I was prepared in 50% ethanol and 50% deionized water. The solution was vortexed and centrifuged at 10,000×g, and the supernatant, containing fully dissolved Formula I was transferred into a fresh tube. The solution was diluted to 25 uM in 50% ethanol. 200 uL of the 25 uM Formula I was pipetted onto the microscope slides. Control sections were treated with 50% ethanol. Parafilm was placed over sections during 10 min incubation at room temperature. Unbound compound was rinsed by serial immersion in 3×1 min washes in 50% ethanol, followed by a 1 min wash in de-ionized, distilled water. For cell body counterstaining, sections were immersed in 100 uL of 500 nM propidium iodide (PI) in PBS and carefully covered with parafilm. The sections were incubated for 5 min at room temperature. The samples were repeatedly rinsed and washed with PBS (3×10 min), followed by de-ionized, distilled water. The sections were covered with 20 uL of AntiFade Gold (Molecular Probes Inc, Carlsbad Calif.) and examined microscopically. Images were collected on a Leica DMRA2 fluorescent microscope equipped with filter cubes for near ultraviolet and visible fluorophores. Fluorescence was visualized using a Leica “A” filter cube while PI was imaged with a Leica “TX2” cube.
Staining of sciatic nerve sections by Formula I was also compared to a commercially available myelin stain (FluoroMyelin, Invitrogen). The tissue sections were […] by incubating in PBS for 5 minutes, followed by permeabilized with PBS containing 0.2% Triton X-100 for 20 minutes. The staining solution was prepared by 300-fold dilution of a stock solution of DAPI and a stock solution of Fluoromyelin green fluorescent myelin. Each section was flooded with 100 uL of the staining solution, covered with a small piece of parafilm and allowed to incubate for 20 min. The parafilm was removed and all sections were washed 3×5 min in PBS and rinsed with de-ionized, distilled water. After drying, the tissue sections were covered with 20 uL of AntiFade Gold (Molecular Probes Inc) and examined microscopically.

[3] = test system: myelin of freshly explanted sciatic nerve; assay: Staining of explanted nerves; format: binding, rat; details: 20 min incubation, trans-illuminator ≧350 nm
Procedure: Freshly explanted sciatic nerve was incubated in Formula I then imaged under an ultraviolet transilluminator to visualize myelin. Rats were euthanized and within 30 min, 2 cm-long segments of their sciatic nerve tissue were collected, rinsed with PBS, then washed 3×5 min in 50% ethanol. The nerves were incubated at RT in the dark for 20 min in a solution of Formula I as prepared in Example 1. Control nerves were incubated in 50% ethanol. Nerves were rinsed 3×3 min in 50% ethanol, followed by de-ionized distilled water, and mounted on glass slides. Samples were placed on a trans-illuminator (long wavelength, ≧350 nm) and photographed.

[4] = Kinetics and biodistribution of [3H] labeled Formula I (standard uptake values); format: in vivo; details: mice
Procedure: 100 μl of [^3H] labeled Formula I, diluted in saline to 740 kBq/ml, was injected into the tail vein of female mice weighing […]. Mice were killed by CO2 at 2, 5, 15, 30, or 60 min post-injection and organs immediately dissected out. Organs were weighed, transferred to scintillation tubes containing 2 ml Biolute-S (Zinsser Analytic GmbH, Germany), and tubes were shaken overnight at room temperature. Subsequently, 200 μL of glacial acetic acid was added and after 1 h, 10 mL of scintillation fluid was added (Ready Organics, Beckman Coulter). The tubes were shaken vigorously, allowed to rest for 1 h, and radioactivity was measured in scintillation counter (LS 6000LL, Beckman Instruments). Blood, also sampled at each time point, was collected in heparinized tubes. 10 μL of each sample was added to 2 ml Biolute-S. A similar procedure was used for the other organs studied.
Biodistribution of Formula I at different time points following administration was expressed as standard uptake values (SUVs), according to the following formula wherein RA is a measure of radioactivity: […]

| Compound | Emission max [1] [nm] | Excitation max [1] [nm] | labeling of rat brain tissue section ([2]; 25 uM in 50% ethanol, 10 min, cerebellum, PI counterstain, FIG. 1) | labeling of sectioned peripheral nerves ([2]; cross-sections of peripheral nerves) | fluorescence of explanted sciatic nerve [3] | blood-brain barrier penetration ([4]; peripheral administration, uptake in cortex and cerebellum) | SUV / radioactive signal of sciatic nerve over time ([4]; tail vein injection, 2-60 min) | SUV of cortex and cerebellum ([4]; tail vein injection, 2 min post-injection) | time for SUV of multiple tissues to decline to baseline levels ([4]; tail vein injection, tissues such as blood and muscle) [min] | labeling of brain or nerve tissue versus background autofluorescence [2] |
| --- | --- | --- | --- | --- | --- | --- | --- | --- | --- | --- |
| O=Cc1ccc(-c2oc3ccccc3c2CO)o1 [Formula I, 2-(2-furanyl-5-formyl)-3-hydroxymethyl benzofuran] | 470 | 380 | specific labeling of myelin | distinctive rings of labeling indicative of cross sections of myelin ensheathing unlabeled axon shafts | distinctive fluorescence over background | does not readily penetrate the blood-brain barrier | remained elevated throughout the sampling period | < 0.2 | ≤ 60 | – |
| N#CC(C#N)=Cc1ccc(-c2oc3ccccc3c2CO)o1 [compound A] | 550 | 435 | – | – | – | – | – | – | – | did not label brain or nerve tissue above background autofluorescence |
| CC(=O)OCc1c(-c2ccc(C=C(C#N)C#N)o2)oc2ccccc12 [compound B, 2-(2-diaminooxyethenyl-5-furanyl)-3-ethylacetyl benzofuran] | 535 | 435 | – | – | – | – | – | – | – | did not label brain or nerve tissue above background autofluorescence |
